Test results taken from the supplement of paper PMC10307832.

Legend:
Test in all cases: relative viability (nuclei count vs DMSO), 5 days (fraction); higher = more cells survive
[1] = compound: CS(=O)(=O)c1ccc(-c2cnc(N)c(C(=O)Nc3ccccc3)n2)cc1 [VE-821] + CC(C)C[C@H](NC(=O)[C@H](Cc1ccccc1)NC(=O)c1cnccn1)B(O)O [Bortezomib] (partner 0.002 µM)
Procedure, shortened: (§1)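 Lung cancer cell lines were seeded in 1536-well plates and dosed by pin tool the next day, with either a single drug or a fixed anchor-drug dose combined with five library-drug doses (not always all listed) spaced in √10 steps. Five days later, one step fixed the cells and stained their nuclei (final 0.05% Triton X-100, 1% formaldehyde, 1 ug/ml Hoechst), and nuclei were counted on 4× images. Relative viability is the nuclei count in treated wells divided by the count in vehicle wells, and each value is the median of duplicate plates.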

[2] = compound: N#CC[C@H](C1CCCC1)n1cc(-c2ncnc3[nH]ccc23)cn1 [Ruxolitinib] + Nc1nc2[nH]cc(CCc3ccc(C(=O)N[C@@H](CCC(=O)O)C(=O)O)cc3)c2c(=O)[nH]1 [Pemetrexed] (partner 0.2 µM)
Procedure, shortened: as §1

[3] = compound: CS(=O)(=O)c1ccc(-c2cnc(N)c(C(=O)Nc3ccccc3)n2)cc1 [VE-821] + C[C@]1(O)C[C@@H](c2nc(-c3ccc4ccc(-c5ccccc5)nc4c3)c3c(N)nccn32)C1 [Linsitinib] (partner 1 µM)
Procedure, shortened: as §1

[4] = compound: CS(=O)(=O)c1ccc(C(=O)Nc2ccc(Cl)c(-c3ccccn3)c2)c(Cl)c1 [Vismodegib] + CC(=O)c1c(C)c2cnc(Nc3ccc(N4CCNCC4)cn3)nc2n(C2CCCC2)c1=O [Palbociclib] (partner 0.5 µM)
Procedure, shortened: as §1

Cell Line	relative viability ([1]; first compound 0.08 µM)	relative viability ([1]; first compound 0.253 µM)	relative viability ([1]; first compound 0.8 µM)	relative viability ([1]; first compound 2.53 µM)	relative viability ([1]; first compound 8 µM)	relative viability ([2]; first compound 0.08 µM)	relative viability ([2]; first compound 0.253 µM)	relative viability ([2]; first compound 0.8 µM)	relative viability ([2]; first compound 2.53 µM)	relative viability ([2]; first compound 8 µM)	relative viability ([3]; first compound 0.08 µM)	relative viability ([3]; first compound 0.253 µM)	relative viability ([3]; first compound 0.8 µM)	relative viability ([3]; first compound 2.53 µM)	relative viability ([3]; first compound 8 µM)	relative viability ([4]; first compound 0.08 µM)	relative viability ([4]; first compound 0.253 µM)	relative viability ([4]; first compound 0.8 µM)	relative viability ([4]; first compound 2.53 µM)	relative viability ([4]; first compound 8 µM)
NCI-H2228	1.23	0.931	1.2	0.824	0.635	0.332	0.342	0.318	0.324	0.321	0.955	0.866	0.635	0.758	0.395	0.927	0.74	0.761	0.627	0.955
NCI-H1792	1.25	1.05	0.938	1.01	0.947	0.883	0.608	0.778	0.564	0.425	0.55	0.711	0.438	0.553	0.421	0.668	0.639	0.653	0.644	0.673
HCC-44	1	0.908	0.98	1.01	0.975	0.632	0.694	0.646	0.571	0.641	0.72	0.685	0.485	0.81	0.769	1.02	0.92	0.911	0.913	1.01
201T	1.11	1.06	1.07	1.07	1.06	0.336	0.338	0.389	0.325	0.299	0.975	0.941	0.956	0.968	0.818	0.323	0.393	0.363	0.359	0.382
HOP-62	0.726	0.389	0.889	0.838	0.718	0.324	0.363	0.299	0.314	0.323	0.838	0.911	0.933	1.23	0.873	0.4	0.411	0.425	0.46	0.39
NCI-H1975	0.482	0.333	0.381	0.393	0.347	0.283	0.334	0.329	0.318	0.266	0.932	0.92	0.876	0.862	0.658	0.666	0.521	0.662	0.542	0.559
NCI-H1755	1.01	0.95	0.941	0.898	0.79	0.459	0.448	0.414	0.407	0.42	1.05	0.978	0.795	0.958	0.898	0.49	0.456	0.409	0.368	0.502
NCI-H2023	1.08	0.902	0.763	0.549	0.218	0.264	0.271	0.23	0.233	0.23	0.779	0.642	0.329	0.539	0.225	0.321	0.318	0.374	0.345	0.4
EKVX	1.06	1.11	1.02	1.21	0.912	–	0.403	0.41	0.402	0.237	1.2	0.893	0.643	0.932	0.681	–	0.38	0.392	0.325	0.433
LCLC-97TM1	0.633	0.634	0.726	0.541	0.568	0.21	0.21	0.184	0.175	0.147	0.186	0.2	0.19	0.183	0.191	0.202	0.208	0.263	0.203	0.213
NCI-H2085	1.04	0.929	0.892	1.12	0.98	0.918	0.825	1.09	0.783	0.653	0.979	0.891	0.847	0.941	0.926	0.459	0.474	0.483	0.467	0.502
BEN	0.872	0.759	0.992	1.03	0.712	0.534	0.744	0.818	0.688	0.95	0.967	0.871	0.793	0.911	0.753	0.455	0.483	0.469	0.479	0.512
HARA	1.4	1.07	1.22	1.23	1.05	0.206	0.27	0.225	0.221	0.229	1.03	1.02	0.931	0.972	0.702	0.284	0.245	0.221	0.303	0.27
PC-14	1.02	0.846	0.855	0.871	0.899	–	0.117	0.122	0.139	0.12	1.02	0.911	0.95	1.02	0.971	0.494	0.492	0.614	0.587	0.621
SW 1573	1.23	1.05	1.15	1.15	1.01	0.878	0.855	0.957	0.768	0.867	0.912	0.859	0.789	0.874	0.874	0.395	0.398	0.363	0.406	0.451
NCI-H1355	1.26	1.15	1.09	1.27	0.718	1.1	0.977	1.09	1.02	1.01	0.803	0.789	0.654	0.767	0.56	0.391	0.441	0.384	0.413	0.433
NCI-H460	1.51	1.05	0.977	0.823	0.248	0.0622	0.0628	0.0588	0.0628	0.063	1.06	0.657	0.693	0.239	0.0295	0.225	0.125	0.217	0.156	0.35

Cell Line	relative viability ([1]; first compound 0.08 µM)	relative viability ([1]; first compound 0.253 µM)	relative viability ([1]; first compound 0.8 µM)	relative viability ([1]; first compound 2.53 µM)	relative viability ([1]; first compound 8 µM)	relative viability ([2]; first compound 0.08 µM)	relative viability ([2]; first compound 0.253 µM)	relative viability ([2]; first compound 0.8 µM)	relative viability ([2]; first compound 2.53 µM)	relative viability ([2]; first compound 8 µM)	relative viability ([3]; first compound 0.08 µM)	relative viability ([3]; first compound 0.253 µM)	relative viability ([3]; first compound 0.8 µM)	relative viability ([3]; first compound 2.53 µM)	relative viability ([3]; first compound 8 µM)	relative viability ([4]; first compound 0.08 µM)	relative viability ([4]; first compound 0.253 µM)	relative viability ([4]; first compound 0.8 µM)	relative viability ([4]; first compound 2.53 µM)	relative viability ([4]; first compound 8 µM)
NCI-H2126	1.22	1.04	1.11	1.04	1.09	0.757	0.736	0.789	0.721	0.663	0.805	0.652	0.589	0.715	0.627	0.329	0.335	0.342	0.333	0.328
LCLC-103H	1.12	0.938	1.01	1.06	1.09	0.454	0.474	0.45	0.46	0.455	1.23	1.1	0.999	1.34	1.1	0.473	0.475	0.481	0.517	0.526
COR-L 105	0.746	0.841	0.677	0.738	0.467	–	1	0.926	0.874	0.919	0.944	0.885	0.75	0.776	0.496	0.425	0.415	0.369	0.405	0.388
H3255	0.799	0.882	0.813	0.853	0.906	0.506	0.553	0.569	0.528	0.473	1.08	1.05	0.914	1.06	0.982	0.296	0.29	0.292	0.33	0.324
NCI-H441	0.622	0.967	0.552	0.705	0.405	0.259	0.252	0.273	0.231	0.261	0.762	0.666	0.651	0.821	0.42	0.203	–	0.196	0.243	0.24
NCI-H2347	1.07	0.881	0.729	0.876	0.878	0.459	0.407	0.451	0.406	0.434	1.02	1.05	1.07	1.21	1.06	0.443	0.418	0.419	0.448	0.488
CAL-12T	1.04	0.984	1.13	0.996	0.717	1.15	1.18	1.22	0.993	0.802	0.94	0.805	0.725	0.891	0.956	0.45	0.499	0.569	0.454	0.442
HCC-827	1.01	0.996	1.04	1.12	1.08	–	0.249	0.231	0.258	0.274	0.932	1.01	0.909	0.934	0.976	0.222	0.517	0.449	0.446	0.481
NCI-H520	0.603	0.697	–	0.57	0.47	0.74	0.714	0.748	0.466	0.413	1.09	0.931	–	1.03	0.755	0.182	0.224	0.254	0.198	0.288
A-427	0.964	0.937	0.906	0.93	0.695	1	0.927	0.967	1.04	0.893	1.18	1.12	1.06	1.08	0.894	0.536	0.525	0.506	0.493	0.566
NCI-H650	0.828	0.709	0.961	0.753	1.02	0.898	0.98	0.958	0.966	0.683	0.959	0.843	0.863	0.949	0.714	0.359	0.323	0.309	0.338	0.341
NCI-H23	1	0.991	1.14	0.829	0.323	0.779	0.787	0.755	0.708	0.564	0.56	0.639	0.485	0.706	0.37	0.505	0.439	0.544	0.412	0.522
SK-LU-1	1.28	1.13	0.99	1.12	1.21	1.03	1.02	1.01	0.919	0.792	1.15	0.86	1.07	0.843	0.383	0.407	0.416	0.416	0.376	0.384
LOU-NH91	0.529	0.906	0.527	0.555	0.377	0.376	0.338	0.378	0.354	0.353	0.94	0.949	0.989	1.04	0.898	0.536	0.582	0.496	0.523	0.553
NCI-H647	1.39	0.825	0.804	1.08	0.569	0.177	0.189	0.199	0.162	0.117	1.44	1.28	0.829	0.751	0.493	0.328	0.409	0.463	0.354	0.452
LXF-289	1.04	1.07	1.1	1.08	1.11	0.866	0.943	0.925	0.933	0.852	0.992	0.945	1.06	1.1	1.07	0.582	0.605	0.595	0.594	0.6
